pIC50: −log10 of the molar value. Activity calls are given as the source filed them.
How the values were obtained:
BJ [1] = experiment: cells; type: functional, cell-based; details: Homo sapiens
[2] = molecular target: T1, G-protein coupled receptor 55 (Homo sapiens, UniProt Q9Y2T6); experiment: GPR55 agonists via beta-arrestin recruitment, primary screen, imaging, U2OS cells, beta-arrestin-GFP redistribution (AID 1961); type: functional
BJ [3] = experiment: cytotoxicity toward BJ-TERT-LT-ST fibroblasts, dose response, cell-based, RAS-independent, luminescence (AID 1935); type: functional; details: Homo sapiens;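 further: BJ fibroblasts immortalized with TERT plus LT and ST oncogenes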
BJ [4] = experiment: cytotoxicity toward BJ-TERT fibroblasts, dose response, cell-based, RAS-independent, luminescence (AID 1933); type: functional; details: Homo sapiens
[5] = cytotoxicity in HEK-293T cells, dose response, cytotoxicity control for TCR NF-kB inhibitor project, luminescence, T-cell screen hits (AID 489026); type: functional, cell-based;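 further: cells exposed to compound about 14 hours before the viability readout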
[6] = THP-1 cell cytotoxicity, dose response, cytotoxicity control for non-replicating M. tuberculosis project (AID 489025); type: functional
[7] = cytotoxicity toward DRD oncogenic fibroblasts, dose response, cell-based, non-viral oncogenic, luminescence (AID 1934); type: functional; details: Homo sapiens
BJ [8] = experiment: cytotoxicity toward Ras-transformed BJeLR fibroblasts, dose response, cell-based, alamar blue fluorescence, cherrypicked samples (AID 2631); type: functional; details: Homo sapiens;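 further: confirmatory dose-response assay in RAS-dependent BJ fibroblasts engineered with TERT, LT and ST, with cytotoxicity read by fluorescence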
[9] = molecular target: T2, Heat shock factor protein 1 (Mus musculus, UniProt P38532); experiment: inhibition of MG132-induced HSE-luciferase signal, confirmation, cell-based, NIH3T3, luminescence, dose retest (AID 2382); type: functional;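 further: NIH3T3 fibroblasts with HSF1-driven luciferase reporter stressed by proteasome inhibitor MG132; luminescence from HSF1-driven luciferase expression after 8 hours of MG132 stress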
T2 sequence (P38532 whole entry): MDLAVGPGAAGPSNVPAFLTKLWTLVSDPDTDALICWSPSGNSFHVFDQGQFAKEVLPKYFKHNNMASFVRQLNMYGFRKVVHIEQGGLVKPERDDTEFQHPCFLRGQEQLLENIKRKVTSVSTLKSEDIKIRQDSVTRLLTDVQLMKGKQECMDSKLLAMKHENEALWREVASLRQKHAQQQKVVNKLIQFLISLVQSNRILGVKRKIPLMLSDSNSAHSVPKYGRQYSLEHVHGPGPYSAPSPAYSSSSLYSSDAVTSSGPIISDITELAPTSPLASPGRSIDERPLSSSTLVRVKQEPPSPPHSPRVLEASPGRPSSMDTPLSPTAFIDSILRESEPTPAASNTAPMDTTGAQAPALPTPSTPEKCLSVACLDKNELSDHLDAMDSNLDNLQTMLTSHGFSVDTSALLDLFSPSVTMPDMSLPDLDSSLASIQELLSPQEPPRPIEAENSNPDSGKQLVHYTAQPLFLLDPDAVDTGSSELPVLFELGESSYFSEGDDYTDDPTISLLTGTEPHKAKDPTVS

[10] = molecular target: Sphingosine 1-phosphate receptor 1 (Homo sapiens, UniProt P21453); type: functional;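 further: Tango beta-arrestin reporter U2OS cells stimulated with S1P near its EC80; inhibitor potency meaning antagonism of receptor activation by the natural agonist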
Chain of Sphingosine 1-phosphate receptor 1 (P21453 whole entry): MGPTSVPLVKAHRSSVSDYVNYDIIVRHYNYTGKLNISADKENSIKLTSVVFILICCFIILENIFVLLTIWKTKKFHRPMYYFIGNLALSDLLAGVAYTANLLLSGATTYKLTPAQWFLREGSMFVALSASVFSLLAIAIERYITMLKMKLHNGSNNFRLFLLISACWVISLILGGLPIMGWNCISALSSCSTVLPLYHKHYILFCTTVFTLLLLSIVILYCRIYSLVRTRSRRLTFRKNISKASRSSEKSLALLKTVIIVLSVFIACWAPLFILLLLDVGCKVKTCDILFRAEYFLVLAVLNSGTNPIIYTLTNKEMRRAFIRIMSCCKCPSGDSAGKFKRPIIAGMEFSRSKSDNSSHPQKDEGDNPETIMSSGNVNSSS

[11] = molecular target: T3, Sphingosine 1-phosphate receptor 4 (Homo sapiens, UniProt O95977); experiment: Fluorescence dose response cell-based high throughput screening assay for antagonists of the Sphingosine 1-Phosphate Receptor 4 (S1P4). [Related pubchem assays: 1524 (Confirmation in triplicates.), 1510 (Primary screen.)]; type: functional
T3 sequence (O95977 whole entry): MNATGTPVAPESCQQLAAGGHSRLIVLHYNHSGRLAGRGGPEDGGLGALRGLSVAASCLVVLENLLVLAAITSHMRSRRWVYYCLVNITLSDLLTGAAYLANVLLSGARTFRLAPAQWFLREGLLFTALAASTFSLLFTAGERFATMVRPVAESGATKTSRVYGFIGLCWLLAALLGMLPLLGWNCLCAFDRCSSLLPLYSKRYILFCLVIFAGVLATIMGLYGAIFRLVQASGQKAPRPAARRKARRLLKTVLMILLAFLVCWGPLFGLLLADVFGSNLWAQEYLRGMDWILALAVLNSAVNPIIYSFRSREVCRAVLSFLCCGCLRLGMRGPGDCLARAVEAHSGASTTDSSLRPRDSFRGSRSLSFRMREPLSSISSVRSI

[12] = molecular target: Induced myeloid leukemia cell differentiation protein Mcl-1 (Homo sapiens, UniProt Q07820); type: functional
Chain of Induced myeloid leukemia cell differentiation protein Mcl-1 (Q07820 whole entry): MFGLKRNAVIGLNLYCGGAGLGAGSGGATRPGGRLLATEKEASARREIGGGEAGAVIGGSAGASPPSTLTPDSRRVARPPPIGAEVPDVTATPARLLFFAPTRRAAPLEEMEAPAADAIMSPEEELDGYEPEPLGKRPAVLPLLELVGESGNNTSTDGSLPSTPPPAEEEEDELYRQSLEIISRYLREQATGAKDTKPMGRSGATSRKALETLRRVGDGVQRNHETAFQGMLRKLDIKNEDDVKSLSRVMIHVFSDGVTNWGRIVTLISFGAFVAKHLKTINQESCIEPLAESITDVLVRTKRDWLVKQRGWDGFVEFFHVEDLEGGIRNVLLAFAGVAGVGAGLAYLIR

NS3 = NS3 (Hepatitis C virus, UniProt A3EZJ3); experiment: PubChem AID 2173; set-up: species or system Hepacivirus hominis
Chain of NS3 (A3EZJ3 whole entry): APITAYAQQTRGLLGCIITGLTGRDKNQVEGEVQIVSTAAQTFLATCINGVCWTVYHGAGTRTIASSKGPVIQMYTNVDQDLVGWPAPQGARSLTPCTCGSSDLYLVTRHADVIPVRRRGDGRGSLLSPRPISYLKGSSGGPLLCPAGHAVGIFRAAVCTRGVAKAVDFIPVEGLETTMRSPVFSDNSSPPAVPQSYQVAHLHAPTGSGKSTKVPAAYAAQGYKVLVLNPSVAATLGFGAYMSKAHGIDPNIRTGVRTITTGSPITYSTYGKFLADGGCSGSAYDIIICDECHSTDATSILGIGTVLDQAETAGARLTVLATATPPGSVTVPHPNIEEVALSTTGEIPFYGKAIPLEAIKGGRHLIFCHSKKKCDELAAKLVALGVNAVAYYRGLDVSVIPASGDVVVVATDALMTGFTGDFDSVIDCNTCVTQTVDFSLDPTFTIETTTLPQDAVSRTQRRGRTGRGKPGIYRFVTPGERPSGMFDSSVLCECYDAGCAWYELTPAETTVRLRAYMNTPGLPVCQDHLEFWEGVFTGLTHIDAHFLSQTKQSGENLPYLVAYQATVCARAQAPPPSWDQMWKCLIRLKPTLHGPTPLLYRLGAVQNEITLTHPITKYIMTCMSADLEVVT

[13] = HepG2 cell cytotoxicity, dose response, cytotoxicity control for Shn3 inhibitor project, CellTiter-Glo, cherry-picked (AID 624134); type: functional, cell-based
Protein skinhead-1 = molecular target: T4, Protein skinhead-1 (Caenorhabditis elegans, UniProt P34707); type: functional
T4 sequence (P34707 whole entry): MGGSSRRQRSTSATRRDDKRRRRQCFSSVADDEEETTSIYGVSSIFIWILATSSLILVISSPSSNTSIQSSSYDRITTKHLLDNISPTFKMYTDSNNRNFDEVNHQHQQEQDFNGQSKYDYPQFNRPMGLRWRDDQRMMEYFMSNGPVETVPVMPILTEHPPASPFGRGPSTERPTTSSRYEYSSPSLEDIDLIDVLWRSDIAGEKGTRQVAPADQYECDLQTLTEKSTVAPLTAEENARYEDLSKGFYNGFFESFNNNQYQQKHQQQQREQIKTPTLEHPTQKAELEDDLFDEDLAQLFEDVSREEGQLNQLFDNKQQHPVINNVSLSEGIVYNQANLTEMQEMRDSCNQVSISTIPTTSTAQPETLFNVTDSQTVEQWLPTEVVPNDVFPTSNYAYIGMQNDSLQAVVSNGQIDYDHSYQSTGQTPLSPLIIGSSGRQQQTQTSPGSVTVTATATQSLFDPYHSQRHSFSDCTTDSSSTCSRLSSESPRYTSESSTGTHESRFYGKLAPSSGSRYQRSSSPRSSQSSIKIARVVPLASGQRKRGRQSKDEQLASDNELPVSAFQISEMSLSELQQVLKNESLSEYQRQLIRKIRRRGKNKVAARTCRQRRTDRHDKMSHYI

[14] = Luminescence-based counterscreen assay for KLF5 inhibitors: dose response cell-based high throughput screening assay to identify cytotoxic compounds using the IEC-6 intestinal epithelial cell line. [Related pubchem assays: 1700 (Primary screen.), 1834 (Confirmation screen.), 1858 (Summary AID.), 1905 (Counterscreen.)]; type: functional
[15] = reduction of Shn3 3'UTR firefly luciferase signal, dose response, Schnurri-3 inhibitor project, cell-based, Clone20 osteoblasts, cherry-pick, set 2 (AID 720490); type: functional;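 further: actives lower the luminescence signal as inhibitors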
[16] = Shn3 3'UTR reporter inhibitors, dose response, cell-based, Clone20 osteoblasts, firefly luciferase, cherry-picked (AID 624132); type: functional;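 further: firefly luciferase luminescence from reporter carrying the Shn3 3'UTR in osteoblasts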
HEK293 = experiment: Fluorescence-based counterscreen for potentiators or agonists of NPY-Y2: cell-based high-throughput dose response assay to identify inhibitors of cyclic nucleotide gated ion channel (CNGC) activity. In this assay, the parental HEK293 cell line transfected with a cyclic-nucleotide gated ion channel (CNGC)-based cAMP sensor is used to measure inhibition of isoproterenol-induced CNGC activity by test compound.; type: functional; details: Homo sapiens;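 further: stimulus is 1 µM isoproterenol at EC100 plus PDE inhibitor Ro 20-1724 at 25 µM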
[17] = molecular target: Neuropeptide Y receptor type 1 (Homo sapiens, UniProt P25929); experiment: Fluorescence-based counterscreen for agonists of NPY-Y2: cell-based high-throughput dose response assay for agonists of NPY-Y1.; type: functional
Chain of Neuropeptide Y receptor type 1 (P25929 whole entry): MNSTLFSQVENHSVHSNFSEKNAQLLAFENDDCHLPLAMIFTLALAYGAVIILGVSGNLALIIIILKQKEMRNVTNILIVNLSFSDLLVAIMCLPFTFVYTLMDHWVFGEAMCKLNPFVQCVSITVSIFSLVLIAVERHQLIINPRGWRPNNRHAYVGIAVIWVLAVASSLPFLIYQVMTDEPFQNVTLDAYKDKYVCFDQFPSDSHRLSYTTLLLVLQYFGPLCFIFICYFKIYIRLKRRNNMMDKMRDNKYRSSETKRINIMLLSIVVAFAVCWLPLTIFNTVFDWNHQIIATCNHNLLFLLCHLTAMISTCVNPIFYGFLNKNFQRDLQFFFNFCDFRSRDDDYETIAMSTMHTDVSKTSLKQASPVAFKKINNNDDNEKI

[18] = molecular target: Neuropeptide Y receptor type 2 (Homo sapiens, UniProt P49146); experiment: Fluorescence-based cell-based high-throughput dose response assay for agonists of NPY-Y2. [Related pubchem assays: 1703 (Screening assay (CNGC inhibitors).), 1359 (Screening assay (NPY-Y2 potentiators or agonists).), 1304 (Screening assay (NPY-Y1 potentiators or agonists).), 1710 (Screening assay (NPY-Y2 agonists).), 1791 (Summary AID.)]; type: functional
Chain of Neuropeptide Y receptor type 2 (P49146 whole entry): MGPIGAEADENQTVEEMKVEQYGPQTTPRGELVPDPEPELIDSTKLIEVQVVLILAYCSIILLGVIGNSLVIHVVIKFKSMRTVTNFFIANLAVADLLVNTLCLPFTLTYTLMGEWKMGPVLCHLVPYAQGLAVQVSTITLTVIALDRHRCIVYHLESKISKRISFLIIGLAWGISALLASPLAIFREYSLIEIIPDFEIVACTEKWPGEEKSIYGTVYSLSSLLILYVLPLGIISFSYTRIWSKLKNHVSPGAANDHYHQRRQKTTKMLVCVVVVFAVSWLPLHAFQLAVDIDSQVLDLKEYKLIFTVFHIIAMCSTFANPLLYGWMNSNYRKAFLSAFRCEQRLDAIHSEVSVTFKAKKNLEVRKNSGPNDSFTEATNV

Beta-galactosidase = Beta-galactosidase (Escherichia coli, UniProt Q8VNN2); type: functional
Chain of Beta-galactosidase (Q8VNN2 whole entry): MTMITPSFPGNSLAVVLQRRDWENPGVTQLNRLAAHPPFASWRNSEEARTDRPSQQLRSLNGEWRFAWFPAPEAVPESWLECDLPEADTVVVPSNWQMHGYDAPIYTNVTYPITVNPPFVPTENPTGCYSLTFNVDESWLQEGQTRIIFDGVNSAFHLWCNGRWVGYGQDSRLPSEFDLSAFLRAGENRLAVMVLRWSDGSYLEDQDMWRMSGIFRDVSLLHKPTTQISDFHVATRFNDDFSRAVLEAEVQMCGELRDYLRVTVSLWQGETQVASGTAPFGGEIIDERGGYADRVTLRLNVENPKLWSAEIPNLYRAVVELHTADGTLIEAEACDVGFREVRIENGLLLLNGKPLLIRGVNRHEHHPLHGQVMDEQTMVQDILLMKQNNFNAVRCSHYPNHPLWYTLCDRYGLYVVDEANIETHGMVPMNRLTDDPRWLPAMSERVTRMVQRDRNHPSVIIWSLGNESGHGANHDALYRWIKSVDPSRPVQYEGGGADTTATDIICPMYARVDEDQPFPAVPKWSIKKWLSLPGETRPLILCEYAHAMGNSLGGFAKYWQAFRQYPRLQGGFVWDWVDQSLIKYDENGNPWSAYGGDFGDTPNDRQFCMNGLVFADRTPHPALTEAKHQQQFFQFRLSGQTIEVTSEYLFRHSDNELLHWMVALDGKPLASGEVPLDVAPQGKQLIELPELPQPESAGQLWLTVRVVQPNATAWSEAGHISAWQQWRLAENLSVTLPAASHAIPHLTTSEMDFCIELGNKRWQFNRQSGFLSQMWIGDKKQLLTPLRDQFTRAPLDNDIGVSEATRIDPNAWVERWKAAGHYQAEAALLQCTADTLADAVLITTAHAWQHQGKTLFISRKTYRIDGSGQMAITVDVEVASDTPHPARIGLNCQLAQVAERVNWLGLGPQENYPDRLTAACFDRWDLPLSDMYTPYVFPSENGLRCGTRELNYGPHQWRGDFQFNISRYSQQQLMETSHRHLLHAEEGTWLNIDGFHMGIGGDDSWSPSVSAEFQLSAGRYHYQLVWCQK

Streptokinase A = molecular target: T5, Streptokinase A (Streptococcus pyogenes serotype M1, UniProt P10520); experiment: S. pyogenes streptokinase expression inhibitors, potency, dose response, plasminogen activation absorbance, OD405 (AID 1914); type: functional, Streptococcus pyogenes M1 GAS;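 further: secreted streptokinase activity via plasminogen activation per viability signal from cell pellet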
T5 sequence (P10520 whole entry): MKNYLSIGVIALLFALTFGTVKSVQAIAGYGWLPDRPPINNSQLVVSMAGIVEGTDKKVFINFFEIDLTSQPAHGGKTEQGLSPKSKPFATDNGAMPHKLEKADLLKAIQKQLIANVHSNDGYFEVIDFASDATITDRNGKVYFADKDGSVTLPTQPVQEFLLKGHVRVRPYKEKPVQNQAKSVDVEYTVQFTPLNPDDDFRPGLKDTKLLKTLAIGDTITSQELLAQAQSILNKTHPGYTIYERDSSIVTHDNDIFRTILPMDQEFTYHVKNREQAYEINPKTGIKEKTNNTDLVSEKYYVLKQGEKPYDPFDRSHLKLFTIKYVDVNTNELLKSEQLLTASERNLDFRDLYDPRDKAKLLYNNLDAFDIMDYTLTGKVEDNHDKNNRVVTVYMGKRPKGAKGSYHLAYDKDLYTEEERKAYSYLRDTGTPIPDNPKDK

[19] = molecular target: T6, Kappa-type opioid receptor (Homo sapiens, UniProt P41145); type: functional
T6 sequence (P41145 whole entry): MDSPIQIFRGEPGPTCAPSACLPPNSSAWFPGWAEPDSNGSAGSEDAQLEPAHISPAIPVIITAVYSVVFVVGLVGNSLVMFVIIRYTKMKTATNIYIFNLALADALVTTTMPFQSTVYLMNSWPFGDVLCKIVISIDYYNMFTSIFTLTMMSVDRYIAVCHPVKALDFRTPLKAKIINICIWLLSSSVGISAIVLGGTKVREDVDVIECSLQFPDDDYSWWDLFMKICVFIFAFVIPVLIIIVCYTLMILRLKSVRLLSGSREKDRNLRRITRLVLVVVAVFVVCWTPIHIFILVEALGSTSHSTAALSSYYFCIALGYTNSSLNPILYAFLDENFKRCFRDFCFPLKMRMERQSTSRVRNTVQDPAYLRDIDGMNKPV

[20] = molecular target: T1, G-protein coupled receptor 55; experiment: GPR55 antagonists blocking LPI-driven arrestin recruitment, primary screen, imaging, U2OS, beta-arrestin-GFP, LPI agonist (AID 2013); type: functional;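 further: antagonist potency measured as reduced agonist-driven arrestin aggregation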
[21] = molecular target: T6, Kappa-type opioid receptor; type: functional; remark: listed apart in the source
[22] = molecular target: Matrix metalloproteinase-14 (Homo sapiens, UniProt P50281); experiment: Dose Response confirmation of uHTS hits for a small molecule inhibitors of MT1-MMP activation in a fluorescence assay set 2.; type: functional
[23] = enhancers of respiration in Yfh1-depleted yeast, dose response, Friedreich's ataxia, plus single-dose screen (AID 1465); type: functional;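 further: yeast depleted of Yfh1p frataxin homolog grown on glycerol needing respiration; WST-1 tetrazolium dye reduction as measure of cellular dehydrogenase metabolic activity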
[24] = test system: Streptococcus sp. 'group A'; experiment: growth inhibition of control SK(-) GAS strain, dose response, counter-screen for streptokinase expression inhibitor project, luminescence, kanamycin, BacTiterGlo, confirmation (AID 1900); type: functional, organism-based
Streptococcus = experiment: Group A Streptococcus viability loss, dose response, counter-screen for streptokinase expression inhibitor project, luminescence, BacTiterGlo (AID 1915); type: functional, organism-based;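 further: potency for reduction of bacterial viability or growth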
[25] = molecular target: Lysosomal acid glucosylceramidase (Homo sapiens, UniProt P04062); experiment: Dose response cell-based high throughput screening assay to identify enhancers of beta-glucosidase activity. [Related pubchem assays: 784 ]; type: functional
Chain of Lysosomal acid glucosylceramidase (P04062 whole entry): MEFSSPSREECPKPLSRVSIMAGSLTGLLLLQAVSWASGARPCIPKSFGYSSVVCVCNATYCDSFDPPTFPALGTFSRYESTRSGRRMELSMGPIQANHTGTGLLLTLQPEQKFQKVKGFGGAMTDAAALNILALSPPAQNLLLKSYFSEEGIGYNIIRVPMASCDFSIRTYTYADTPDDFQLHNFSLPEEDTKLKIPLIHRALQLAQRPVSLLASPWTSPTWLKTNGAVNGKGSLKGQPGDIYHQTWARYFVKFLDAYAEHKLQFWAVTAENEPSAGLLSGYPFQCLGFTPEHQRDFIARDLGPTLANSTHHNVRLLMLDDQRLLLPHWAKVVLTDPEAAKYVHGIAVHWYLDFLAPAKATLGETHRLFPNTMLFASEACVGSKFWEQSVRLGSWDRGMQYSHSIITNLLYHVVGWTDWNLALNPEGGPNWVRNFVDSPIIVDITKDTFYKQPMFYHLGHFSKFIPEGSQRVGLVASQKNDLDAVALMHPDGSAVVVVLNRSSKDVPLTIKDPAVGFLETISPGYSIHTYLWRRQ

T1 sequence (Q9Y2T6 whole entry): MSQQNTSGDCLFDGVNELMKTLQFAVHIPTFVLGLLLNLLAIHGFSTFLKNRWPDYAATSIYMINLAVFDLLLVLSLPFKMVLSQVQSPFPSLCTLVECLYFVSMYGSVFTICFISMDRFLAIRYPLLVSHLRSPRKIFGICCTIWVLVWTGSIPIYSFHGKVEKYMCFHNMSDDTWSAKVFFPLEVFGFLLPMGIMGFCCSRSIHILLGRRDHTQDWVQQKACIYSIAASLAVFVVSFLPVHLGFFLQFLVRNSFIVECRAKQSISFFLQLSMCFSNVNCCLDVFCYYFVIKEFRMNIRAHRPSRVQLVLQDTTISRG

CC1(C)C[C@H]2C=C(C=O)[C@]3(C=O)C[C@]3(C)[C@H]2C1 [ISOVELLERAL]
EC50 (BJ [1]): 5.77 µM (inconclusive)
EC50 [2]: < 0.5 µM (active)
EC50 (BJ [3]): 3.8 µM (inconclusive)
EC50 (BJ [4]): 5.11 µM (inconclusive)
IC50 [5]: > 80 µM (inactive)
CC50 [6]: 29.5 µM (active)
EC50 [7]: 5.29 µM (inconclusive)
EC50 (BJ [8]): 0.575 µM (inconclusive)
EC50 [9]: 0.53 µM (active)
IC50 [10]: 4.96 µM (active)
IC50 [11]: 0.253 µM (active)

CNc1ccc(Br)cc(C(=O)/C=C/c2cccc(Cl)c2Cl)c1=O
IC50 [12]: 2.63 µM (active)
IC50 (NS3): 5.02 µM (active)

c1ccc(-c2noc(-c3ccc4ccccc4c3)n2)nc1
AC50 [13]: 27.6 µM (active)
IC50 [5]: > 80 µM (inactive)
IC50 (Protein skinhead-1): > 100 µM (inactive)
IC50 [14]: 31.9 µM (not active)
AC50 [15]: 5.85 µM (active)
AC50 [16]: 1.98 µM (active)

Fc1ccc(Nc2c(-c3ccco3)nc3ccccn23)cc1
EC50 (HEK293): 17.9 µM (not active)
EC50 [17]: 6.46 µM (active)
EC50 [18]: 10.6 µM (not active)

COc1ccccc1N=Nc1nc(-c2ccccc2)c(-c2ccccc2)[nH]1
EC50 (Beta-galactosidase): 23.9 µM (active)
EC50 (Streptokinase A): 89.6 µM (active)
pIC50 [19]: < 4.49
IC50 [20]: 0.587 µM (active)
IC50 [21]: 24 µM (inactive)
IC50 [22]: 36.8 µM (inactive)
EC50 [23]: > 100 µM (active)
EC50 [24]: 1.97 µM (active)
EC50 (Streptococcus): > 150 µM (not active)

CCOC(=O)COc1ccc(-c2nnc(-c3ccccc3)o2)cc1
EC50 [25]: > 10 µM (not active)

Reference: ChEMBL document CHEMBL1201862, “PubChem BioAssay data set” (2004)
